We go through three molecules from patent publication US5530157A, “Anti-inflammatory benzoic acid derivatives” (Scios Nova Inc., priority 1995, dated 1996).

Assay [1] concerns polymorphonuclear neutrophils. The assay can be described thus: Adherence of PMN to serum coated wells, PAF. It is filed as cell-based. To be noted: Homo sapiens, Polymorphonuclear neutrophil, 10 min, PAF 1 μM, read-out: IC50 to inhibit adhesion, PAF serum. An excerpt:
(§1) Several in vitro assays were employed to determine the ability of compounds of the invention to function as anti-inflammatory agents. One group of assays measured the ability of the compounds to inhibit adherence of polymorphonuclear neutrophils to serum coated wells (in the presence of either TNF-α or PAF) or to human umbilical vein endothelial cells (in the presence of INF-γ). Another group of assays measured the ability of the compounds to inhibit the release of elastase or superoxide from activated neutrophils. These assays were performed in the following manner.
(§2) Isolation of PMN: Blood was drawn into syringes containing heparin (1 U/mL), from human volunteers (free of any medication for at least 48 hrs). 30 mL of blood was layered over a gradient of 10 mL 1.077 g/mL Histpaque (Sigma, St. Louis, Mo.), and centrifuged at room temperature, 400×g for 20 min. All subsequent manipulations were carried out at room temperature, with endotoxin free reagents, and using polypropylene pipettes and tubes, to prevent activation of the PMN. The pinkish PMN layer immediately above the RBC was collected and washed 2× with Hank's buffered salt solution with calcium and magnesium, 0.2% glucose, and 10 mM HEPES, pH 7.2 (HBSS++) by centrifugation at 400×g for 10 min. Pellets were suspended in 8 mL 0.9% NaCl, and RBC lysed by the addition of 24 mL water for 40 sec, followed by the addition of 8 mL of 3.6% NaCl. After centrifugation at 200×g for 8 min, RBC ghosts were aspirated from the top of the PMN pellet, and cells washed with HBSS++. PMN adherence to protein substrates: 96 well tissue culture plates were coated with 10% pooled human serum (North American Biological,;, Miami, Fla.) in phosphate buffered saline (PBS) for 1 hr at 37° C., followed by washing 3× with PBS. Test compounds were prepared in DMSO as 100× stocks. PMN (4×10^6 /mL) were preincubated with test compounds for 10 min at 37° C. in serum-coated wells. Tumor necrosis factor (TNF-α) was added to 3 nM or platelet aggregation facor (PAF) to 1 μM, and adherence was carried out for 20 or 10 min, respectively. Nonadherent cells were aspirated, and wells washed two times with warm PBS with calcium and magnesium, with blotting of the inverted plate following each aspiration. Adherent PMN were quantitated using a BCA protein assay (Pierce, Rockford, Ill.).

Assay [2] relates to neutrophil accumulation in thioglycollate-induced peritonitis. The assay can be described thus: Neutrophil accumulation in thioglycollate-induced peritonitis in the mouse. It is filed as in vivo, Male CF-1 mice. To be noted: for ED50: iv. The protocol: Two in vivo models of inflammation were used to assess the anti-inflammatory activity of compounds of the invention. One model measures neutrophil accumulation in thioglycollate-induced peritonitis in mice. The other measures neutrophil accumulation in the cutaneous Reverse Passive Arthus reaction in rats. These assays were carried out as follows.
Male CF-1 mice were pretreated with individual test compound (4-6 mice per compound) 10 min prior to thioglycollate treatment. Test compounds at various doses, solubilized in 1% Tween, pH 9.0, were injected into the tail vein. Thioglycollate (4% Brewer's thioglycollate broth in water) was administered intraperitoneally in 1 ml volume. Peritoneal lavages, performed 4 hrs following thioglycollate treatment, involved injecting 5 ml of Dulbecco's phosphate buffered saline with 0.1% bovine serum albumin and 10 units/ml heparin into the peritoneal cavity, massaging the peritoneum, and then removing fluid through peritoneal aspiration. The lavage fluid was centrifuged, red blood cells lysed with water, cells were resuspended in Hank's balanced salt solution, and leukocytes were counted with a modified Neubauer hemacytometer. Leukocyte preparations (cytospin slides) were differentially stained with a Giemsa stain. Neutrophil accumulation expressed as a percent of control was calculated after the subtraction of baseline neutrophils from all treatement groups (see Table III).

Assay [3] deals with human umbilical vein endothelial cells. Kind of assay: INF-γ HUVEC assay: adherence of PMN to human umbilical vein endothelial cells. The assay is classed as cell-based. To be noted: HUVECs with INF-γ 1 unit/mL 20 hrs, PMN activated with 50 ng/mL TNF, read-out: IC50 to inhibit adhesion, IFN-γ HUVECS.
Excerpt: as §1, §2
INF-γHUVEC Assay. Primary human umbilical vein endothelial cells (HUVECs) from Clonetics Corp. (San Diego, Calif.) were seeded at 20,000 cells per wall in a 96 well tissue culture plate that was coated with fibronectin, for 45 min and then twice rinsed with phosphate buffered saline. To the culture media (M199, 80%; FBS, 20%; […] endothelial cell growth factor (Maciag et all, Proc. Natl. Acad. Sci. USA (1979) 76(11):5674-5678), 0.1 mg/mL heparin; 5% CO2; 37° C.) was added INF-γ (R&D Systems) at 1 unit/mL for 20 hrs. Isolated PMNs were loaded with the fluorescent dye BCECF AM (Molecular Probes) by incubating 1×10^7 cells/mL in HBSS with 4 μM dye for 30 min at 37° C. The PMNs were incubated with test compound for 10 min at 37° C., then activated with 50 ng/mL TNF and immediately added to the HUVECs which had been rinsed twice with HBSS+1% human serum. The co-culture plate was incubated at 37° C. for 20 min followed by gentle washing (twice) with HBSS+1% human serum. The extent of adherence was assessed by measuring the amount of fluorescence (485-535 nm filter) in each well with a fluorescence plate reader (Idexx).

The test system of assay [4] is neutrophils. Kind of assay: Superoxide production by PMN, fMLP. To be noted: Homo sapiens, Neutrophil; fMLP 300 nM, TNF preincubation; read-out: IC50 to inhibit superoxide production, fMLP/O2. It is filed as cell-based.
Excerpt: as §1
(§3) Superoxide production. Superoxide production by PMN was measured as the superoxide dismutase (SOD)-inhibitable reduction of ferricytochrome c. […] Therefore, subsequent experiments were performed in the presence of cytochrome c only. In all cases, experiments were carried out in 96 well plates. Before the addition of cells, plates were coated by incubating each well with 200 μl of 10% human serum for 1 h in 37° C. Plates were then washed several times with PBS containing 10 mM CaCl2 and MgCl2. Neutrophils, resuspended in Hank's balanced salt solution (HBSS) to a final concentration of 4×10^6 cells/ml, were preincubated with TNF (10 ng/ml) for 10 min at 37° C. in the presence of cytochrome c (75 μm). Experiments were then performed with 100 μl of this cell suspension added to each well, followed by the addition of 10 μl of an aqueous dilution of test compound (50 nm-[…]). Immediately after the addition of test compound, a 10 μl aliquot of activators (fMLP, 300 nM; PAF, 20 nM; C5a, 5 μg/ml) was added to each well. Plates were immediately transferred to a preheated Thermomax kinetic microplate reader and the change in absorbance at […] was recorded over a 3 min period.

Assay [5] relates to neutrophils. The assay can be described thus: Superoxide production by PMN, PAF. The assay is classed as cell-based. To be noted: Homo sapiens, Neutrophil; PAF 20 nM, TNF preincubation; read-out: IC50 to inhibit superoxide production, PAF/O2.
Excerpt: as §1, §3

[6] abbreviates: Neutrophil, mouse, i.v., thioglycollate-induced peritonitis, 4 hrs, read-out: ED50.

Molecules are shown by their SMILES. Where two headings read alike, the source gives them in different places.

On to `O=C(O)c1ccc(/C=C/c2ccccc2-c2ccccc2)cc1` [NPC 18730, 4-[2-(biphenyl)-E-ethenyl]benzoic acid], for which the IC50 in assay [1] stood at 2.4 µM; in assay [3], 25.7 µM; in assay [4] it was 0.34 µM; in assay [5] it was 3 µM. In assay [2] (4 h), the median effective dose (ED50) (usually the dose at which the effect has come halfway, by size or by number of responders) worked out at 0.8 mg/kg. In addition, the “% Inhibition of neutrophil accumulation” value came to 16% in assay [2] (mouse, i.v., 0.3 mg/kg, 4 hrs); 20% in assay [2] (mouse, i.v., 1 mg/kg, 4 hrs); 67% in assay [2] (mouse, i.v., 3 mg/kg, 4 hrs); 37% in assay [2] (mouse, i.v., 10 mg/kg, 4 hrs); 48% in assay [2] (mouse, i.v., 30 mg/kg, 4 hrs).

On to `O=C(O)c1ccc(C=Cc2ccccc2Oc2ccccc2)cc1` [NPC 18801, 2'-phenoxy-4-stilbenecarboxylic acid], for which the IC50 in assay [1] was determined as 0.86 µM; in assay [3], 52.4 µM; in assay [4] it was 0.15 µM; in assay [5] it was 0.52 µM. The 50% effective dose (ED50) in assay [2] (setting [6]) is under 10 mg/kg. For the same molecule, the “% Inhibition of neutrophil accumulation” value in assay [2] (mouse, i.v., 3 mg/kg, 4 hrs) is reported as 36%; in assay [2] (mouse, i.v., 10 mg/kg, 4 hrs) it was 65%; in assay [2] (mouse, i.v., 30 mg/kg, 4 hrs) it was 65%.

With `O=C(O)c1ccc(/C=C/c2ccccc2-c2ccc(Cl)c(Cl)c2)cc1` [NPC 18818, 4-{2-[2-(3,4-dichlorophenyl)phenyl]-(E)-ethenyl] benzoic acid], the IC50 came out at 0.41 µM in assay [1], 30 µM in assay [3], 0.15 µM in assay [4] and 0.3 µM in assay [5]. Besides, the ED50 in assay [2] (setting [6]) is under 30 mg/kg. Further, the “% Inhibition of neutrophil accumulation” value in assay [2] (mouse, i.v., 3 mg/kg, 4 hrs) stood at 35%; in assay [2] (mouse, i.v., 10 mg/kg, 4 hrs), 34%; in assay [2] (mouse, i.v., 30 mg/kg, 4 hrs), 52%.
